Consider 13 compounds from patent publication US10800816B2 (Baxalta GmbH, priority 2012, dated 2020).

Where a SMILES comes first, the peptide text is derived from it. [ ]: non-standard residue; d: D form. The star is where a group is joined. Succinimide(1-Et,3-yl) = CCN1C(=O)CC(*)C1=O; Tle = CC(C)(C)[C@H](N)C(=O)O; Hexanoyl = CCCCCC(=O)*; Aib = CC(C)(N)C(=O)O; Acm = CC(=O)NC*

Data set [1] deals with FVIII-inhibited whole blood. The data set can be described thus: Rotation thromboelastography (ROTEM) in whole blood. The arrangement: species or system human. To be noted: for EC50: FVIII-inhibited, read-out: EC50, global hemostatic parameters; for coagulation parameters: Hem A / FVIII-inhibited human whole blood. On the procedure: Continuous visco-elastic assessment of human whole blood clot formation and firmness was performed by rotation thromboelastography with whole blood preparations in the presence or absence of peptides. […] Test samples were prepared by dissolving quantities of peptides in either DMSO or HEPES buffered saline (with or without 0.1% Tween 80).
Recordings were made using a ROTEM thromboelastography coagulation analyzer (Pentapharm, Munich, Germany) at 37° C. Briefly, blood is added into a disposable cuvette in a heated cuvette holder. A disposable pin (sensor) is fixed on the tip of a rotating axis. The axis is guided by a high precision ball bearing system and rotates back and forth. The axis is connected with a spring for the measurement of elasticity. The exact position of the axis is detected by the reflection of light on a small mirror on the axis. The loss of elasticity when the sample clots leads to a change in the rotation of the axis. The data obtained are computer analyzed and visualized in a thromboelastogram. […] An elasticity of approximately zero is observed before clot formation begins. Mirror image traces above and below the zero line indicate the effect of clot formation on the rotation of the axis.
The analytical set-up was as follows: to 20 μL of test sample or control, 300 μL of pre-warmed (37° C.) CTI treated citrated whole blood was added, followed by 20 μL of a 1:15 dilution of TF PRP reagent containing recombinant human tissue factor (rTF, 3 pM) (TS40, Thrombinoscope BV, Maastricht, The Netherlands). Coagulation was initiated by the addition of 20 μ200 mM CaCl2 (star-TEM®, Pentapharm, Munich, Germany) and recordings were allowed to proceed for at least 120 min. The final concentration of rTF in the assay was 11 or 44 fM.
The thromboelastographic parameters of clotting time (CT), clot formation time (CFT) and maximum clot firmness (MCF) were recorded in accordance with the manufacturer's instructions. CT is defined as the time from the start of measurement to the start of clot formation. CFT is defined as the time from the start of clot formation until an amplitude of 20 mm is reached. MCF is the maximum difference in amplitude between the two traces during the assay. The first derivative of the data of the thromboelastogram are plotted to obtain a graph of velocity (mm/s) against time (s). From this graph, the maximum velocity (maxV) is determined. The time at which the maximum velocity is obtained (maxV-t) is also determined.
This example describes a method for assessing clot formation in whole blood using rotation thromboelastography (ROTEM). The assay was performed as described in Example 8. The analytical set-up was as follows: 300 μL of pre-warmed (37° C.) CTI treated citrated whole blood was added to a peptide sample (10, 100, 1000 nM final assay concentration) or a control, followed by addition of a 1:15 dilution of TF PRP reagent containing recombinant human tissue factor (rTF, 3 pM) (TS40, Thrombinoscope BV, Maastricht, The Netherlands). In certain experiments, exogenous full length TFPI (flTFPI) at final concentrations of 2 or 10 nM was added to simulate flTFPI plasma levels of up to 50-fold over normal. Coagulation was initiated by the addition of 20 μL 200 mM CaCl2 (star-TEM®, Pentapharm, Munich, Germany) and recordings were allowed to proceed for at least 120 min. The final concentration of rTF in the assay was 44 fM. The thromboelastographic parameters of clotting time (CT), clot formation time (CFT) and maximum clot firmness (MCF) were recorded in accordance with the manufacturer's instructions. CT is defined as the time from the start of measurement to the start of clot formation. CFT is defined as the time from the start of clot formation until an amplitude of 20 mm is reached. MCF is the maximum difference in amplitude between the two traces during the assay.

The next data set in a line: FIGURE 78J. From the text: Table printed on a drawing sheet, FIGURE 78J
First reader's note: Part of a table series (FIGS. 78A-78AA); single-measurement columns hold several replicate values per cell, joined by blanks, next to the mean column (the first INHIBITION [%] column holds the mean).

Data set [2] deals with TFPI. The data set is described as follows: IC50 ELISA | Mean IC50 [nM]. The source says: Table printed on a drawing sheet, FIGURE 78Z
Head of the field: IC50 ELISA | Mean IC50 [nM]
First copying reader's note: Continued table: the first body row (45.67) belongs to a compound on the preceding sheet, the last row probably continues on the next sheet, and cells with several values list single replicates.
Background: ELISA stands for enzyme-linked immunosorbent assay.

The nature of a further data set: FIGURE 78AA. The source says:
Table printed on a drawing sheet, FIGURE 78AA
First reader's note: Continued from the previous sheet: the first body row (73.35) belongs to a compound listed there; cells with several numbers hold the single replicate values behind the mean.

Another data set in a line: FIGURE 78K. From the text:
Table printed on a drawing sheet, FIGURE 78K

The subject of data set [3] is TFPI. The data set can be described thus: Progress Curves of Inhibition of FXa | % Inhibit (2.5μM). Here is the method: Head of the field: Progress Curves of Inhibition of FXa | % Inhibit (2.5μM)

A word on the EC50: it is the concentration that produces a half-maximal response. Take `CSCC[C@@H]1NC(=O)[C@H](C)NC(=O)[C@@H](NC(=O)[C@H](Cc2c[nH]cn2)NC(=O)[C@H](Cc2c[nH]c3ccccc23)NC(=O)[C@H](CCCCN)NC(=O)[C@H](Cc2ccc(O)cc2)NC(=O)[C@H](Cc2ccc(O)cc2)NC(=O)[C@H](CO)NC(C)=O)CSSC[C@@H](C(=O)N[C@H](C(=O)N[C@@H](Cc2c[nH]c3ccccc23)C(=O)N[C@H](C(=O)N[C@@H](CCCCN)C(=O)N[C@@H](Cc2ccccc2)C(N)=O)C(C)C)C(C)C)NC(=O)[C@H]([C@@H](C)O)NC(=O)[C@H](CCSC)NC(=O)[C@H]([C@@H](C)O)NC(=O)CNC(=O)[C@H](CCCCN)NC(=O)[C@H](CCSC)NC(=O)[C@H](CC(=O)O)NC(=O)[C@H](CCCNC(=N)N)NC1=O` [JBT1837]: in data set [1], the concentration giving a half-maximal response (EC50) is 4 nM and the coagulation parameters result is given as “corrected blood coagulation parameters in FVIII-inhibited blood”.

`CCN1C(=O)CC(SC[C@H](NC(=O)[C@H](CC(C)C)NC(=O)[C@H](CCCCN)NC(=O)[C@H](C)NC(=O)C(C)(C)NC(=O)[C@H](CC(C)C)NC(=O)[C@H](CCCNC(=N)N)NC(=O)[C@H](CCC(=O)O)NC(=O)[C@H](Cc2ccccc2)NC(=O)[C@H](Cc2ccc(O)cc2)NC(=O)CNC(=O)[C@H](CC(=O)O)NC(=O)[C@@H](NC(=O)[C@H](Cc2c[nH]cn2)NC(=O)[C@@H](NC(=O)[C@H](CC(N)=O)NC(=O)[C@H]2CCCN2C(=O)[C@H](CCCCN)NC(=O)[C@H](CO)NC(=O)[C@H](CCC(N)=O)NC(=O)[C@H](Cc2ccccc2)NC(C)=O)C(C)C)C(C)C)C(N)=O)C1=O` (stereo partly drawn) [JBT2317]: in data set [1], the coagulation parameters entry is reported as “restored coagulation parameters in Hem A blood”. Moreover, in the data set “FIGURE 78J”, the “24 h Human Plasma Stability | Mean Remaining [%]” value is recorded as 23.77% and the “24 h Mouse Plasma Stability | Mean Remaining [%]” value is reported as 15.95%.

Take `CCCCCC(=O)N[C@@H](Cc1ccccc1)C(=O)N[C@@H](CCC(N)=O)C(=O)N[C@@H](CO)C(=O)N[C@@H](CCCCN)C(=O)N1CCC[C@@H]1C(=O)N[C@@H](CSCNC(C)=O)C(=O)N[C@H](C(=O)N[C@@H](Cc1c[nH]cn1)C(=O)N[C@H](C(=O)N[C@@H](CC(=O)O)C(=O)N[C@H](C)C(=O)N[C@@H](Cc1ccc(O)cc1)C(=O)N[C@@H](Cc1ccccc1)C(=O)N[C@@H](CCC(=O)O)C(=O)N[C@@H](CCCNC(=N)N)C(=O)N[C@@H](CC(C)C)C(=O)NC(C)(C)C(=O)N[C@@H](C)C(=O)N[C@@H](CCCCN)C(=O)N[C@@H](CC(C)C)C(N)=O)C(C)(C)C)C(C)C` [JBT2528, Hex-FQSKp-C(Acm)-VH-Tle-DaYFERL-Aib-AKL-NH2] (Hexanoyl-FQSK[dP]C(Acm)VH[Tle]D[dA]YFERL[Aib]AKL-NH2): the concentration giving a half-maximal response (EC50) in data set [1] is 11 nM.

By IC50 is commonly meant the concentration at which inhibition is half-maximal. Higher therefore signals lower potency. For `CCCCCC(=O)N[C@@H](Cc1ccccc1)C(=O)N[C@@H](CCC(N)=O)C(=O)N[C@@H](CO)C(=O)N[C@@H](CCCCN)C(=O)N1CCC[C@@H]1C(=O)N[C@@H](CSCNC(C)=O)C(=O)N[C@H](C(=O)N[C@@H](Cc1c[nH]cn1)C(=O)N[C@H](C(=O)N[C@@H](CC(=O)O)C(=O)N[C@H](C)C(=O)N[C@@H](Cc1ccc(O)cc1)C(=O)N[C@@H](Cc1ccccc1)C(=O)N[C@@H](CCC(=O)O)C(=O)N[C@@H](CCCNC(=N)N)C(=O)N[C@@H](CC(C)C)C(=O)NC(C)(C)C(=O)N[C@@H](C)C(=O)N[C@@H](CCCCN)C(=O)N[C@@H](CC(C)C)C(=O)N[C@@H](CSC1CC(=O)N(CC)C1=O)C(N)=O)C(C)(C)C)C(C)C` (stereo partly drawn) [JBT00002537, Hex-FQSKp-Cys(Acm)-VH-Tle-DaYFERL-Aib-AKLC(NEM)- NH2] (Hexanoyl-FQSK[dP]C(Acm)VH[Tle]D[dA]YFERL[Aib]AKLC(Succinimide(1-Et,3-yl))-NH2), the “24 h Human Plasma Stability | Mean Remaining [%]” value in the data set “FIGURE 78Z” came to 106.65%. Half-maximal inhibition with TFPI [2] (IC50) required 7.13 nM.

For the compound `CCCCCC(=O)N[C@@H](Cc1ccccc1)C(=O)N[C@@H](CCC(N)=O)C(=O)N[C@@H](CO)C(=O)N[C@@H](CCCCN)C(=O)N1CCC[C@@H]1C(=O)N[C@@H](CO)C(=O)N[C@H](C(=O)N[C@@H](Cc1c[nH]cn1)C(=O)N[C@H](C(=O)N[C@@H](CC(=O)O)C(=O)N[C@H](C)C(=O)N[C@@H](Cc1ccc(O)cc1)C(=O)N[C@@H](Cc1ccccc1)C(=O)N[C@@H](CCC(=O)O)C(=O)N[C@@H](CCCNC(=N)N)C(=O)N[C@@H](CC(C)C)C(=O)NC(C)(C)C(=O)N[C@@H](C)C(=O)N[C@@H](CCCCN)C(=O)N[C@@H](CC(C)C)C(=O)N[C@@H](CSC1CC(=O)N(CC)C1=O)C(N)=O)C(C)(C)C)C(C)C` (stereo partly drawn) [JBT00002546, Hex-FQSKpSVH-Tle-DaYFERL-Aib-AKLC(NEM)-NH2] (Hexanoyl-FQSK[dP]SVH[Tle]D[dA]YFERL[Aib]AKLC(Succinimide(1-Et,3-yl))-NH2), in the data set “FIGURE 78AA”, the “24 h Human Plasma Stability | Mean Remaining [%]” value is 87.66% and the “24 h Mouse Plasma Stability | Mean Remaining [%]” value is recorded as 72.98%.

With `CCCCCC(=O)N[C@@H](Cc1ccccc1)C(=O)N[C@@H](CCC(N)=O)C(=O)N[C@@H](CO)C(=O)N[C@@H](CCCCN)C(=O)N1CCC[C@@H]1C(=O)N[C@@H](CO)C(=O)N[C@H](C(=O)N[C@@H](Cc1c[nH]cn1)C(=O)N[C@H](C(=O)N[C@@H](CC(=O)O)C(=O)N[C@H](C)C(=O)N[C@@H](Cc1ccc(O)cc1)C(=O)N[C@@H](Cc1ccccc1)C(=O)N[C@@H](CCC(=O)O)C(=O)N[C@@H](CCCNC(=N)N)C(=O)N[C@@H](CC(C)C)C(=O)NC(C)(C)C(=O)N[C@@H](C)C(=O)N[C@@H](CCCCN)C(=O)N[C@@H](CC(C)C)C(N)=O)C(C)(C)C)C(C)C` [JBT00002548, Hex-FQSKpSVH-Tle-DaYFERL-Aib-AKL-NH2], in the data set “FIGURE 78AA”, the “24 h Human Plasma Stability | Mean Remaining [%]” value is 98.85% and the “24 h Mouse Plasma Stability | Mean Remaining [%]” value turned out to be 50.25%.

“(Hex-FQSKp-Cys(Acm)-VH-Tle-DaYFERL-Aib-AKLC-NH2)- Mal-mPEG23 [JBT00002544]”: in “FIGURE 78AA”, the “24 h Human Plasma Stability | Mean Remaining [%]” value is recorded as 54.00% and the “24 h Mouse Plasma Stability | Mean Remaining [%]” value is 46.20%.

For the compound “Ac-FQSKpNVHVDGYFERL-Aib-AKLC(ME-50MA)-NH2 [JBT00002325]”, in “FIGURE 78J”, the “24 h Human Plasma Stability | Mean Remaining [%]” value came out at 67.60% and the “24 h Mouse Plasma Stability | Mean Remaining [%]” value is 44.70%.

In the case of “Ac-FQSKpNVHVDGYFERL-Aib-AKLC(ME-120MA)-NH2 [JBT00002326]”, in “FIGURE 78J”, the “24 h Human Plasma Stability | Mean Remaining [%]” value was determined as 58.70% and the “24 h Mouse Plasma Stability | Mean Remaining [%]” value came out at 57.20%.

With “Ac-FQSKpNVHVDGYFERL-Aib-AKLC(ME-200MA0B)-NH2 [JBT00002327]”, in “FIGURE 78K”, the “24 h Human Plasma Stability | Mean Remaining [%]” value is reported as 76.50% and the “24 h Mouse Plasma Stability | Mean Remaining [%]” value came to 65.50%.

Take “Ac-FQSKpNVHVDGYFERL-Aib-AKLC(ME-300MA)-NH2 [JBT00002328]”: in the data set “FIGURE 78K”, the “24 h Human Plasma Stability | Mean Remaining [%]” value is 68.40% and the “24 h Mouse Plasma Stability | Mean Remaining [%]” value came to 51.00%.

Take “Ac-KKHVSKRSKEMALARLYYKTSKK-NH2 (SEQ ID NO: 2302) [JBT0231]”: in the data set with TFPI [3], the “Progress Curves of Inhibition of FXa | % Inhibit ([…])” value is recorded as 0%.

“Ac-KKLHVSKRSKEMALARLYYKTSKK-NH2 (SEQ ID NO: 2307) [JBT0236]”: the “Progress Curves of Inhibition of FXa | % Inhibit ([…])” value in the data set with TFPI [3] came to 0%.
